These results are taken from US6525200B1, “Multicyclic aromatic compounds and uses thereof” (Roche Diagnostics Corporation, priority 2000, dated 2003).

Structures are written as SMILES. Counter-ions that a name gives are not always drawn. Like-named read-outs stand apart in the source and are kept apart here.

A short description of series [1]: Fluorescence complexation studies of receptors with urea. Type of series: binding. The procedure: (§1) UV-visible absorbance and fluorescence were examined. UV spectra were recorded on a Hewlett-Packard 8452A diode array UV-vis spectrophotometer, using a cell of 1 cm pathlength. Fluorescence spectra were recorded on a Photon Technology International QM-1 Steady state Fluorescence system. For UV-visible titrations stability constants (Ks) were calculated by fitting the data to the equation: Aobs=(εR[R]t+[R]t(εRG−εR)(Ks[G]t+Ks[R]t+1−sqrt((Ks[G]t+Ks[R]t+1)^2−4*[R]t Ks^2[G]t))/(2Ks[R]t))1 derived from Ks=[G][R]/[RG], [R]t=[R]+[RG], [G]t=[G]+[RG], and Aobs=(εR[R]+εRG[RG])1. The experimentally determined parameters are as follows: [R]t, the total concentration of a receptor; [G]t, the total concentration of a guest; Aobs, the observed absorbance; εR, the extinction coefficient of free receptor; 1, cell pathlength. The fitted parameters: εRG, the extinction coefficient of a receptor complex with a guest, Ks, the stability constant. For fluorescense titrations stability constants (Ks) were calculated by fitting as the data to the equation: Iobs=IR+(IRG−IR)(Ks[G]t+Ks[R]t+1−sqrt((Ks[G]t+Ks[R]t+1)^2−4*[R]tKs^2[G]t))/(2Ks[R]t) derived from Ks=[G][R]/[RG], [R]t=[R]+[RG], [G]t=[G]+[RG], and Iobs=IR+IRG. The experimentally determined parameters are as follows: [R]t, the total concentration of a receptor; [G]t, the total concentration of a guest; Iobs, the observed fluorescence intensity; IR, the fluorescence intensity of free receptor at a given concentration. The fitted parameters: IRG, the fluorescence intensity of a receptor complex with aguest at a given concentration, Ks, the stability constant. The calculations were performed using software Sigma Plot 1.02 (Jandel Scientific) with tolerance value 0.000100. The goodness of fit was evaluated by means of the Student's Paired t-Test (P-value>0.05).
A fluorescence titration study was performed as follows: a stock solution of the receptor (compound IB) was prepared with distilled water. Using the equipment described in Example 6, an excitation wavelength of 384 nm was used to obtain the spectrum for the uncomplexed receptor. Thereafter, four (4) aliquots of a urea stock solution were added with fluorescence being measured after each addition. A composite spectrum is show in FIG. 8.
Fluorescence was measured for the stock receptor solution using an excitation wavelength of 384 nm with a peak emission being observed at 450 nm. The stock urea solution was then added and fluorescence was measured again. A composite spectrum is shown in FIG. 10, with curve (a) representing the receptor without urea and curve (b) representing the complexation of the receptor with urea.
Fluorescence was also measured using a 25 μM stock solution of the receptor in distilled water. […] A urea solution was prepared and added to the receptor solution to measure quenching due to complexation.
Fluorescence was measured for a 20 μM stock solution of compound ID in a 98:2 (v/v) DMSO:water solvent system. An excitation wavelength of 407 nm was used with a peak emission being observed at 450 nm. A 0.17 M urea solution was then added and fluorescence measured again. A composite spectrum is shown in FIG. 11, with curve (a) representing the receptor (i.e., compound ID) without urea and curve (b) representing the complexation of the receptor with urea. […]
Fluorescence was measured for a 20 μM stock solution of compound IE in a 1:1 (v/v) DMSO:CHCl3 solvent system. […] Twenty equivalents of urea were then added and fluorescence measured again. […]

For series [2] the following is noted: water or aqueous medium; cited from earlier work.
For series [3] the following is noted: in water; read-out: dissociation constant of the complex with methylguanidinium ion; cited from earlier work.
A short description of series [4]: UV-visible titration of receptor with N-methylguanidine hydrochloride in distilled water. Type of series: binding. The procedure: as §1
UV-visible titrations was performed by first preparaing a 30 μM receptor 5 (compound IA) stock solution in distilled water. […]
The following parameters were found from absorbance data measured at 410 nm: εR=6.50×10^3 cm^−1 M^−1, εRG=2.43×10^4 cm^−1 M^−1, Ks=1.0×10^5 M^−1.

Series [5] is described as follows: Fluorescence quenching of receptor on addition of N-methylguanidinium. The note with it: 30 μM receptor in distilled water, excitation 388 nm, 2 equivalents of guest. Type of series: binding. The procedure: as §1, with “The fitted parameters: εRG, the extinction coefficient of a receptor complex with a guest, Ks, the stability constant.” left out, “The fitted parameters: IRG, the fluorescence intensity of a receptor complex with aguest at a given concentration, Ks, the stability constant. The calculations were performed using software Sigma Plot 1.02 (Jandel Scientific) with tolerance value 0.000100. The goodness of fit was evaluated by means of the Student's Paired t-Test (P-value>0.05).” left out

Where [6] appears, read: in water, fluorescence quenching, read-out: Kd with urea.

On to `Nc1cccc(-c2ccc3c(n2)-c2nc4nc5c(cc4cc2CC3)CCc2ccc(C(=O)O)nc2-5)n1` [Compound IC, 5,6,9,10-Tetrahydro-13-(2-aminopyridin-6-yl)[1,10]phenanthrolino[2,3-b][1,10]phenanthroline-2-carboxylic acid], for which the Kd in series [1] (in DMSO, 30 μM receptor, excitation 384 nm, read-out: Kd for urea) came to 33 mM; in series [1] (setting [6]) it was 13 mM.

As to `CCCCc1c2c(nc3c1CCc1cc4cc5c(nc4nc1-3)-c1nc3c(c(CCCC)c1CC5)CCc1cc4cccnc4nc1-3)-c1nc3ncccc3cc1CC2` [Compound 4], the “solubility in water / aqueous medium” value in series [2] is “not soluble in water”.

As to `Nc1ccc2cc3c(nc2n1)-c1nc2c(cc1CC3)CCc1cc3cc4c(nc3nc1-2)-c1nc(C(=O)O)ccc1CC4` [Compound IB, 17-Amino-5,6,9,10,12,13-hexahydro[1,10]phenanthrolino[2,3-b]pyrido[2′3′:2,3]quino[7,8-j][1,10]phenanthroline-2-carboxylic acid, potassium salt], the Kd in series [1] (setting [6]) was < 17 mM.

Consider `O=C(O)c1ccc2c(n1)-c1nc3nc4c(cc3cc1CC2)CCc1ccc(C(=O)O)nc1-4` [Compound 3], for which, in series [3], the Kd is 4.3 mM. For the same compound, the “solubility in water / aqueous medium” value in series [2] was “soluble in water”.

As to `O=C(O)c1ccc2c(n1)-c1nc3nc4c(cc3cc1CC2)CCc1ccc(-c2nc(O)cc(O)n2)nc1-4` [Compound ID, 5,6,9,10-Tetrahydro-13-(4,6-dihydroxypyrimidin-2-yl) [1,10]phenanthrolino [2,3-b][1,10]phenanthroline-2-carboxylic acid, potassium salt], the Kd in series [1] (98:2 (v/v) DMSO:water, 20 μM receptor, excitation 407 nm, read-out: Kd for urea) stood at 50 mM.

With `COc1cc(N(C)C)c(OC)cc1CCNC(=O)c1ccc2c(n1)-c1nc3nc4c(cc3cc1CC2)CCc1ccc(C(=O)NCCNc2ccc3c5c(cccc25)C(=O)N(Cc2ccc(C(=O)OC(C)(C)C)cc2)C3=O)nc1-4` [Compound IE, 5,6,9,10-Tetrahydro[1,10]phenanthrolino[2,3-b][1,10]phenanthroline-2-(N-(4-aminoethyl-N′-(4-tert-butoxycarbonyltoluidyl)naphthyridine))carboxamide-13-(N-(2,5-dimethoxy-4-dimethylaminophenethyl))carboxamide], the Kd in series [1] (1:1 (v/v) DMSO:CHCl3, 20 μM receptor, excitation 460 nm, read-out: Kd for urea) was 16 mM.

As for `O=C(O)c1ccc2c(n1)-c1nc3nc4c(cc3cc1CC2)CCc1cc2c(nc1-4)-c1nc3ncccc3cc1CC2` [Compound IA, 5,6,9,10,12,13-Hexahydro[1,10]phenanthrolino[2,3-b]pyrido[2′3′:2,3]quino[7,8-j][1,10]phenanthroline-2-carboxylic acid, potassium salt], in series [4] (30 μM receptor in distilled water, absorbance at 410 nm), the “stability constant Ks of complex with N-methylguanidinium” value amounted to 100000 M⁻¹. The “binds N-methylguanidinium more strongly than the arginine cork” value in series [4] (in water) came to 430 times. Further, in series [4] (in water, correlated from Ks, read-out: Kd of complex with N-methylguanidinium), the Kd came to 0.01 mM. Further, the “emission band at 410 nm, remaining share of original fluorescence intensity” value in series [5] is “approximately 24%”.
